From patent US6723716B1, “7-acylamino-3-heteroarylthio-3-cephem carboxylic acid antibiotics and prodrugs thereof” (Essential Therapeutics, Inc., priority 1999, dated 2004)

Tests used:
[1] = test system: human serum proteins; test: Serum binding determination by ultrafiltration/HPLC; type: in vitro ADME; conditions: by HPLC
Protocol: (§1) The more accurate measurement of binding of selected cephalosporin compounds was performed using HPLC as described below.
(§2) 1. Serum is placed in a shaking water bath preheated to 37±2° C. for 5 to 10 minutes to heat serum to 37° C. Serum pH is measured and recorded, while serum is 37° C. using pH paper. Measurements are taken twice, 3 minutes apart. If the pH is not 7.4±0.4 then the pH is adjusted by blowing 5% CO2/95% O2 over the serum. After blowing for several minutes, serum is heated to 37° C. and measurements are taken twice, 3 minutes apart using pH paper to determine the pH. Store at 4° C. The serum is stable for 7 days. Always check the pH before each use.
(§3) 2. Before any centrifugation, the centrifuge temperature must be adjusted to 25±2° C. Preheat the centrifuge by spinning for 45 minutes at the same speed to be used in the assay (1900 g) with two tubes of water in the rotor and the temperature set to 25° C. When the centrifuge stops immediately check the temperature of the tubes of water with a calibrated thermometer. The temperature of the tubes of water must be 25±2° C. […] Continue spinning and measuring the temperature and adjusting the setting until the temperature is 25±2° C.
(§4) 3. Prepare blank ultrafiltrate by pipetting blank pH 7.4 serum into an Amicon Centrifree Micropartition devices, centrifuge: fixed angle rotor, 1900 g, 25° C. for 20 minutes. Heat ultrafiltrate in a shaking water bath preheated to 37° C. Measure ultrafiltrate pH and adjust to the pH of the serum (7.4±0.2).
(§5) 4. Pipette 190 ul of blank ultrafiltrate into a set of labeled 1.7 mL polypropylene microfuge tubes for 3 of each level. Pipette 10 μL of the appropriate standard stock 50, 200, 1000 μg/mL to make standards 2.5, 10, and 50 μg/mL respectively. Vortex each tube well. One set of the standard samples are mixed 1:1 with 0.2 M acetic acid and injected onto the HPLC (MSTD). These samples are the membrane standards and will be used to compare to the other standards. Pipette 190 ul of ultrafiltrate and spike with 10 ul of whatever solution (e.g. water) the standards are prepared in to make the zero standard.
(§6) 5. Pipette 475 μL of blank heated pH 7.4 serum into a set of labeled 1.7 mL polypropylene microfuge tubes for 2 of each (Serum A and Serum B). Pipette 25 μL of the 1000 μg/mL standard stock into each tube, vortex each tube well to make serum standard 50 μg/mL. Remove 100 μL of serum and deproteinate with 200 μL 4% TCA while vortexing to make serum time 0 (serum 50, T0). Place serum tubes in a shaking water bath at 37° C. for 10 minutes. Pipet 100 μL of serum out and deproteinate with 200 μL 4% TCA, to make serum time 10 min (serum 50, T10). Pipet 200 ul serum standard 50 μg/mL into an ultrafiltration device, which is not treated with TCA, to determine free drug in samples (Rat Serum 50).
(§7) 6. Transfer serum and standard samples to labeled Amicon Centrifree Micropartition filters, and centrifuge: 1900 g, 25° C. for 10 minutes. The extracted serum samples (T0 and T10) are spun down and supernatant is loaded into HPLC vials.
(§8) 7. 100 μL of ultrafiltrate sample and 100 μL of 0.2 M acetic acid were mixed together to stabilize the compound in ultrafiltrate.
(§9) 8. Transfer entire stabilized ultrafiltrate solution to a labeled autoinjector HPLC vial cap with Teflon septa, and inject on HPLC.
(§10) Peak height or area is used in a weighted linear regression.

[2] = test system: rat serum proteins; test: as above; type: in vitro ADME; conditions: by HPLC
Protocol: as §1, §2, §3, §4, §5, §6, §7, §8, §9, §10

[3] = test system: rhesus serum proteins; test: as above; type: in vitro ADME; conditions: by HPLC
Protocol: as §1, §2, §3, §4, §5, §6, §7, §8, §9, §10

[4] = test system: S. aureus ATCC29213; test: Human serum binding effect: MIC with and without human serum; type: cell-based, Staphylococcus aureus; conditions: 1:1 human serum:MHB
Protocol: The approximate measurement of the degree of binding of the compound to human serum proteins can be achieved by determination of the effect of the addition of human serum to the medium in which the MIC values against a selected bacterial strain is determined. The ratio of the MIC value obtained in presence of added human serum to the MIC value determined without serum addition was used as a measure of serum binding and the results of such determination are presented below in Table 2.
In addition to the standard MIC determination described above, the staphylococcal strain ATCC29213 is also tested in a ratio 1:1, human serum:MHB to obtain a preliminary estimate of the bioactivity of test compounds in serum: The assay was performed in Human Serum and Mueller-Hinton Broth (HSMHB) with a final bacterial inoculum of 1×10^6 CFU/mL (from an early-log phase culture) and a final volume of 100 μL. Control drugs, including imipenem, vancomycin, dicloxacillin, and new compounds were prepared in double-concentrated Mueller-Hinton broth at a concentration equivalent to 4-fold the desired final concentration. Dilution of compounds were prepared directly in the plates by serial 2-fold dilution in double-concentrated Mueller-Hinton using a multichannel pipette. Positive and negative growth controls were included in each plate. […] The inoculum was prepared by diluting the early log-phase (1 h) culture 1:100 with fresh double-concentrated Mueller-Hinton broth. A volume of 25 μL of the inoculum was added to each well. […] The exact inoculum was determined by applying 10 μl of 10-fold serial dilution of the bacterial suspension on TSA. After overnight incubation at 35° C., colony forming units were manually counted.

[5] = In vitro stability of compounds in rat serum; type: in vitro ADME
Protocol: In general, compounds from the class of 7-acylamino-3-heteroarylthio-3-cephem carboxylic acids have higher chemical reactivity and lower stability towards chemical or enzymatic decomposition than most typical cephalosporins. […] Results shown in Table 2 represent percentage loss of the initial amount of cephalosporin compound upon 60 min incubation in rat serum.
Procedure for measuring degree of degradation of cephalosporin compounds in rat serum was as follows:
Fresh control rat serum (heparinized and stored frozen) is preincubated at 37° C. for 15 min in a shaking water bath. pH is measured using test strips. 25 μL of a 2 mg/mL solution cephalosporin compound (in water) of is then added to each matrix to make 1000 μL. Solutions were incubated at 37° C. 100 ul of solution was taken out at time=0, 15, 30, and 60 min post dose and added 200 μL 4% trichloroacetic acid, vortexed, and centrifuged for 10 min at 14,000 rpm in an Eppendorf microcentrifuge. 25 μL of each supernatant was injected onto HPLC. Experiment was repeated using 25 μL of a 0.2 mg/mL cephalosporin compound. Degradation is measured as the percentage of HPLC peak area at time t relative to peak area at time 0.
HPLC conditions: Beckman Ultrasphere C18 column. 5 u. 4.6 mm×25 cm. 1 mL/min of 95% 0.1 M ammonium acetate, pH 6, 5% ACN going to 75% buffer/organic over 20 min. UV monitored at 254 and 280 nm.

[6] = test system: S. aureus ATCC 13709 (Smith diffuse); test: Murine lethal bacteremic peritonitis (septicemia) efficacy; type: in vivo, mice
Protocol: 10 mice/group were injected intraperitoneally with 2.98×10^7 cfu S. aureus ATCC 13709 (Smith diffuse) and treated at 0 and 2 hrs post-challenge with serial two-fold doses of new cephalosporin antibiotic, imipenem and vancomycin subcutaneously in order to determine the ED50. Male Swiss-Webster mice weighing originally 24.2-26.1 g were obtained from Charles Rivers Labs, Hollister, Calif. Mice were housed 10 per cage and given free access to water and mouse chow.
Staphylococcus aureus ATCC 13709 (Smith diffuse) was grown overnight at 37° C. in Brain-heart Infusion broth (BHIB). The following morning, it was subcultured to fresh BHIB and incubated for 4-5 h at 37° C. The log-phase growth cells were washed once with physiological saline and adjusted to the desired concentration by correlation of absorbency at OD 600 nm with predetermined plate counts (NCCLS, 1994). The cell suspension was mixed with an equal volume of sterile 14% hog-gastric mucin (2). Inoculum was kept in an ice bath until used (<1 h).
Mice were challenged via an injection of 0.5 mL bacterial suspension intraperitoneally. The bacterial challenge was 2.98×10^7 cfu/mouse.
Imipenem (Primaxin IV; Lot 7294A), vancomycin (Vancocin; Lot 8MU60W), and new cephalosporin antibiotic were prepared by serial two-fold dilutions to concentrations of 0.078-0.005 mg/mL, 1.2-0.075 mg/mL, 0.3-0.02 mg/mL, 0.3-0.02 mg/mL and 0.3-0.02 mg/mL respectively in sterile water (1). All antibiotics were administered subcutaneously in 0.1 mL volumes at 0 and 2 hours post-challenge. Concentrations of all compounds are based on the weight of the bioactive ingredients.
The 50% effective dose (ED50) was calculated by the probit method (3) utilizing a program entitled Probit (Nycomed-Salutar).

[7] = Staphylococcus aureus, ATCC13709, sc, read-out: Efficacy in murine septicemia % survival

SMILES	Serum Binding human (% of compound bound to serum) [1] [%]	Serum Binding rat (% of compound bound to serum) [2] [%]	Serum Binding rhesus (% of compound bound to serum) [3] [%]	Human serum binding effect (ratio of MIC value determined with and without human serum added) [4]	stability of compounds in rat serum ([5]; Table 2 data)	Stability in rat serum (% loss) ([5]; after 60 min exposure to rat serum, 37° C., HPLC) [%]	responders at 0.625 mg/kg [6, 7] [%]	responders at 1.25 mg/kg [6, 7] [%]	responders at 2.5 mg/kg [6, 7] [%]	Efficacy in murine septicemia % survival ([6]; dose 5 mg/kg s.c. at 0 and 2 h post-challenge)
N=C(N)NCCSCc1ncccc1SC1=C(C(=O)O)N2C(=O)[C@@H](NC(=O)/C(=N\O)c3nc(N)sc3Cl)[C@H]2SC1 [Cmpd 15, (7R)-7-[(Z)-2-(2-amino-5-chlorothiazol-4-yl)-2-(hydroxyimino)acetamido]-3-[2-(2-guanidinoethylthiomethyl)pyrid-3-ylthio]-3-cephem-4-carboxylic acid]	83	76	88	2	improved stability	38	–	–	–	–
CN[C@H](CC(C)C)C(=O)N[C@H]1C(=O)N[C@@H](CC(N)=O)C(=O)N[C@H]2C(=O)N[C@H]3C(=O)N[C@H](C(=O)N[C@H](C(=O)O)c4cc(O)cc(O)c4-c4cc3ccc4O)[C@H](O)c3ccc(c(Cl)c3)Oc3cc2cc(c3O[C@@H]2O[C@H](CO)[C@@H](O)[C@H](O)[C@H]2O[C@H]2C[C@](C)(N)[C@H](O)[C@H](C)O2)Oc2ccc(cc2Cl)[C@H]1O [Van., Vancomycin, reference compound]	55	–	–	2	–	–	10	20	60	5/100%
